The text below walks through data of patent US20240092779A1, “USP1 INHIBITORS AND USES THEREOF” (Zentaur Therapeutics USA Inc., priority 2022, published 2024).

Values after ≈ are worked out from the molar mass of the structure shown.

Series [1] in a line: Solubility in FaSSIF (Fasted State Simulated Intestinal Fluid). The note with it: kinetic from dmso stock, FaSSIF pH 6.5, 25° C. It is filed as physicochemical. In short, it runs like this:
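Apparent solubility measured in FaSSIF at pH 6.5 from a 10 mM DMSO stock, shaken at 25° C, 1100 RPM for 2 h and then filtered. Filtrate quantified by LC/MS/MS against a 3 μM standard with internal standard, corrected by dilution factor.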

Series [2] can be described thus: Liver microsomal stability (HLM). Type of series: in vitro ADME. The note with it: human, liver microsomes, human liver microsomes 0.5 mg/mL, 1 μM compound, NADPH. A general note: Microsomes from liver hold many membrane-bound enzymes, among them those of drug oxidation.

Regarding `COc1ncnc(C2CC2)c1-c1ncc2cc(-c3c(C)noc3C)c(=O)n(Cc3ccc(-c4nc(C(F)(F)F)cn4C4CC4)cc3)c2n1` [Compound I-155], the solubility at 2 h in series [1] is 10 to 100 µM (≈ 6.55 to 65.5 µg/mL). For the same molecule, in series [2], the microsomal CLint at 1 μM is under 10 µL/min/mg.
The corresponding values for `COc1ncnc(C2CC2)c1-c1nc(C)c2cc(-c3cnn(C)c3)c(=O)n(Cc3ccc(-c4nc(C(F)(F)F)cn4C4CC4)cc3)c2n1` [Compound I-148, 8-({4-[1-Cyclopropyl-4-(Trifluoromethyl)Imidazol-2-Yl]Phenyl}Methyl)-2-(4-Cyclopropyl-6-Methoxypyrimidin-5-Yl)-4-Methyl-6-(1-Methylpyrazol-4-Yl)Pyrido[2,3-d]Pyrimidin-7-One] are at least 100 µM and under 10 µL/min/mg.
Consider `COc1ncnc(C2CC2)c1-c1ncc2cc(-c3cnn(C)n3)c(=O)n(Cc3ccc(-c4nc(C(F)(F)F)cn4C4CC4)cc3)c2n1` [Compound I-151], for which the solubility at 2 h in series [1] was 10 to 100 µM (≈ 6.41 to 64.1 µg/mL). This molecule yielded a microsomal CLint at 1 μM in series [2] of under 10 µL/min/mg.
In series [1], `COc1ncnc(C2CC2)c1-c1ncc2ccc(=O)n(Cc3ccc(-c4nc(C(F)(F)F)cn4C(C)C)cc3)c2c1F` [Compound I-27, 7-(4-cyclopropyl-6-methoxypyrimidin-5-yl)-8-fluoro-1-({4-[1-isopropyl-4-(trifluoromethyl)imidazol-2-yl]phenyl}methyl)-1,6-naphthyridin-2-one] displayed a solubility at 2 h of under 10 µM. Further, in series [2], the microsomal CLint at 1 μM was under 10 µL/min/mg.
The like results for `COc1ncnc(C2CC2)c1-c1ncc2ccc(=O)n(Cc3ccc(-c4cccc(C(F)(F)F)n4)cc3)c2n1` [Compound I-36, 2-(4-cyclopropyl-6-methoxypyrimidin-5-yl)-8-({4-[6-(trifluoromethyl)pyridin-2-yl]phenyl}methyl)pyrido[2,3-d]pyrimidin-7-one] were, in that order, under 10 µM and 10 to 50 µL/min/mg.
The molecule `COc1ncnc(C2CC2)c1-c1nc(C)c2cc(-c3ncnn3C)c(=O)n(Cc3ccc(-c4nc(C(F)(F)F)cn4C4CC4)cc3)c2n1` [Compound I-167, 8-({4-[1-Cyclopropyl-4-(Trifluoromethyl)Imidazol-2-Yl]Phenyl}Methyl)-2-(4-Cyclopropyl-6-Methoxypyrimidin-5-Yl)-4-Methyl-6-(2-Methyl-1,2,4-Triazol-3-Yl)Pyrido[2,3-d]Pyrimidin-7-One] came in with a solubility at 2 h in series [1] of 10 to 100 µM (≈ 6.55 to 65.5 µg/mL). Also, the microsomal CLint at 1 μM in series [2] is under 10 µL/min/mg.
The corresponding values for `COc1ncnc(C2CC2)c1-c1ncc2cc(-c3cn(C)nn3)c(=O)n(Cc3ccc(-c4nc(C(F)(F)F)cn4C4CC4)cc3)c2n1` [Compound I-150] are 10 to 100 µM (≈ 6.41 to 64.1 µg/mL) and under 10 µL/min/mg.
The like results for `COc1ncnc(C2CC2)c1-c1ncc2cc(-c3ncnn3C)c(=O)n(Cc3ccc(-c4nc(C(F)(F)F)cn4C(C)C)cc3)c2n1` [Compound I-168, 2-(4-Cyclopropyl-6-Methoxypyrimidin-5-Yl)-8-({4-[1-Isopropyl-4-(Trifluoromethyl)Imidazol-2-Yl]Phenyl}Methyl)-6-(2-Methyl-1,2,4-Triazol-3-Yl)Pyrido[2,3-d]Pyrimidin-7-One] were, in that order, 10 to 100 µM (≈ 6.43 to 64.3 µg/mL) and under 10 µL/min/mg.
The corresponding values for `COc1ncnc(C2CC2)c1-c1ncc2cc(-c3ncn(C)n3)c(=O)n(Cc3ccc(-c4nc(C(F)(F)F)cn4C4CC4)cc3)c2n1` [Compound I-153, 8-({4-[1-cyclopropyl-4-(trifluoromethyl)imidazo]-2-yl]phenylmethyl)-2-(4-cyclopropyl-6-methoxypyrimidin-5-yl)-6-(1-methyl-1,2,4-triazol-3-yl)pyrido[2,3-d]pyrimidin-7-one] are at least 100 µM and under 10 µL/min/mg.
In series [1], `COc1ncnc(C2CC2)c1-c1nc(C)c2cc(C3CCN(C)CC3)c(=O)n(Cc3ccc(-c4nc(C(F)(F)F)cn4C4CC4)cc3)c2n1` [Compound I-157, 8-({4-[1-Cyclopropyl-4-(Trifluoromethyl)Imidazol-2-Yl]Phenyl}Methyl)-2-(4-Cyclopropyl-6-Methoxypyrimidin-5-Yl)-4-Methyl-6-(1-Methylpiperidin-4-Yl)Pyrido[2,3-d]Pyrimidin-7-One] came in with a solubility at 2 h of at least 100 µM. Moreover, in series [2], the intrinsic clearance (microsomal CLint) at 1 μM is under 10 µL/min/mg.
The corresponding values for `COc1ncnc(C2CC2)c1-c1ncc2cc(-c3ncnn3C)c(=O)n(Cc3ccc(-c4nc(C(F)(F)F)cn4C4CC4)cc3)c2n1` [Compound I-156] are at least 100 µM and under 10 µL/min/mg.
The like results for `COc1cc(Cn2c(=O)ccc3c(C)nc(-c4c(OC)ncnc4C4CC4)nc32)ccc1-c1nc(C(F)(F)F)cn1C1CC1` [Compound I-152, 8-({4-[1-cyclopropyl-4-(trifluoromethyl)imidazo]-2-yl]-3-methoxyphenylmethyl)-2-(4-cyclopropyl-6-methoxypyrimidin-5-yl)-4-methylpyrido[2,3-d]pyrimidin-7-one] were, in that order, at least 100 µM and under 10 µL/min/mg.
The corresponding values for `COc1cc(Cn2c(=O)ccc3c(C)nc(-c4c(OC)ncnc4C4CC4)nc32)cc(F)c1-c1nc(C(F)(F)F)cn1C1CC1` [Compound I-163] are 10 to 100 µM (≈ 6.22 to 62.2 µg/mL) and under 10 µL/min/mg.

As usually defined, the solubility is how much of the substance goes into solution per volume. A higher solubility goes with a readily soluble substance. For orientation: microsomal CLint means the rate of metabolic loss divided by the concentration.
